Experimental data reported in patent US5380724A, “Piperazine and homopiperazine derivatives, pharmaceutical compositions containing them and process for preparing same” (Gyogyszerkutato Intezet KFT, priority 1992, dated 1995).

What was measured:
[1] = system: arachidonic acid (ferrous ion dependent peroxidation); test: inhibition of the ferrous ion dependent peroxidation of arachidonic acid; assay type: biochemical; details: Fe2+ dependent peroxidation of arachidonic acid
Protocol: 2. The inhibition of the ferrous ion dependent peroxidation of arachidonic acid was also measured by the method of J. M. Braughler et al. [J. Biol. Chem. 262, 10438 (1987)] and J. A. Buege and S. D. Aust [Methods in Enzymology 52, 302 (1978)]. The IC50 values (expressed in micromols) of some compounds of the invention, further those of the reference compounds determined in this test are shown in Table 2.

[2] = system: NADPH dependent lipid peroxidation; test: inhibition of the NADPH dependent lipid peroxidation; assay type: biochemical
Protocol: 3. Inhibiton of the NADPH dependent lipid peroxidation was measured according to T. J. Player and A. A. Horton [J. Neurochem. 37, 422 (1981)] and Z. Duniec [Biochem. Pharmacol. 32, 2283 (1983)]. The IC50 values (expressed in micromols) of some compounds of the invention, further those of the reference compounds determined in this test are given in Table 3.

[3] = system: rat brain homogenate (ferrous ion dependent lipid peroxidation); test: ferrous ion dependent lipid peroxidation inhibitory activity on rat brain homogenate (thiobarbituric acid reactive substances); assay type: biochemical; details: Fe2+ dependent lipid peroxidation, TBARS
Protocol: 1. The ferrous ion dependent lipid peroxidation inhibitory activity was measured on rat brain homogenate by using the method descibed by J. M. Braughler et al., [J. Biol. Chem. 262, 10438 (1987)] and J. A. Buege and S. D. […] The IC50 value is defined as the concentration of a test substance which reduces by 50% the amount of the thiobarbituric acid reactive substances (chiefly malondialdehyde) considered to be a characteristic parameter of lipid peroxidation.

[4] = system: ischemia induced weight increase of the small intestine; test: inhibition of ischemia induced weight increase of a definite section in the small intestine of rats; assay type: in vivo; details: Rattus norvegicus, 25 mg/kg oral
Protocol: 2. […] The percentage of inhibition observed after administration of a 25 mg/kg oral dose of the compounds of the invention or of the reference compounds is shown in Table 5.

acute brain injury = test: inhibition of acute brain injury of mice (improvement in the neurological state); assay type: in vivo; details: intravenous
Text: 1. […] 68, 456 (1988)]. The doses of the test compounds administered by the intravenous route and the percentage of improvement in the neurological state are summarized in Table 4.

acute toxicity in rats = assay type: in vivo; details: rat, in vivo, oral

**Q.** With `Cc1cc(C(C)(C)C)c(O)c(C(C)(C)C)c1` [BHT, 3,5-di(tert-butyl)-4-hydroxytoluene, reference compound] as the molecule, how does the IC50 [1] read?
**A.** > 100 µM

**Q.** And the IC50 [2]?
**A.** 2 µM

**Q.** And the IC50 [3]?
**A.** 1 µM

**Q.** Which inhibition in vivo at 25 mg/kg [4] does the source give for `C=CCCCCCCCCC(=O)N1CCN(c2cc(N)nc(N)n2)CC1` [Example 3, 1-(10-Undecenoyl)-4-(2,6-diamino-4-pyrimidinyl)-piperazine] here?
**A.** 31%

**Q.** And the IC50 [3]?
**A.** 52 µM

**Q.** Which inhibition in vivo at 25 mg/kg [4] does the source give for `CCCCCCCCCCCCCCCCCCN1CCN(c2cc(N)nc(N)n2)CC1` [Example 4] here?
**A.** 46%

**Q.** Which inhibition in vivo at 25 mg/kg [4] does the source give for `CCCCCCCCCCCCCCCCCC(=O)N1CCCN(c2cc(N3CCCC3)nc(N3CCCC3)n2)CC1` [Example 6] here?
**A.** 25%

**Q.** With `CCCCCCCCCCCCCCCCCC(=O)N1CCN(c2cc(N)nc(N)n2)CC1` [Example 7] as the molecule, how does the inhibition in vivo at 25 mg/kg [4] read?
**A.** 34%

**Q.** For `Nc1cc(N2CCN(C(c3ccccc3)(c3ccccc3)c3ccccc3)CC2)nc(N)n1` [Example 9, 1-Trityl-4-(2,6-diamino-4-pyrimidinyl)piperazine], which inhibition in vivo at 25 mg/kg [4] is on record?
**A.** 37%

**Q.** And the IC50 [3]?
**A.** 51 µM

**Q.** Which inhibition in vivo at 25 mg/kg [4] does the source give for `c1ccc(C(c2ccccc2)(c2ccccc2)N2CCCN(c3cc(N4CCCC4)nc(N4CCCC4)n3)CC2)cc1` [Example 11] here?
**A.** 57%

**Q.** What does the source list for `Nc1cc(N2CCN(C(c3ccccc3)(c3ccccc3)c3ccccc3Cl)CC2)nc(N)n1` [Example 12]?
**A.** Improvement (in the neurological state) (acute brain injury; 10 mg/kg): 46%; inhibition in vivo at 25 mg/kg [4]: 52%; IC50 [3]: 18 µM

**Q.** Which inhibition in vivo at 25 mg/kg [4] does the source give for `Nc1nc2nc(N3CCN(C(c4ccccc4)(c4ccccc4)c4ccccc4Cl)CC3)nc(N)c2nc1-c1ccccc1` [Example 15] here?
**A.** 32%

**Q.** With `Nc1nc(N)c2nc(C(=O)N3CCN(C(c4ccccc4)(c4ccccc4)c4ccccc4Cl)CC3)c(N)nc2n1` [Example 16] as the molecule, how does the inhibition in vivo at 25 mg/kg [4] read?
**A.** 45%

**Q.** Which inhibition in vivo at 25 mg/kg [4] does the source give for `O=c1[nH]ncc(N2CCN(C34CC5CC(CC(C5)C3)C4)CC2)c1Cl` [Example 18, 1-(1-Adamantyl)-4-(4-chloro-3-oxo-2,3-dihydro-5-pyridazinyl)piperazine] here?
**A.** 31%

**Q.** Which results are given for `Nc1cc(N2CCN(CC(O)COc3cccc4ccccc34)CC2)nc(N)n1` (stereo not drawn) [Example 20, 1-[2-Hydroxy-3-(1-naphthyloxy)-propyl]-4-(2,6-diamino-4-pyrimidinyl)piperazine]?
**A.** inhibition in vivo at 25 mg/kg [4]: 28%; IC50 [3]: 94 µM

**Q.** For `OC(COc1cccc2ccccc12)CN1CCN(c2cc(N3CCCC3)nc(N3CCCC3)n2)CC1` (stereo not drawn) [Example 22], which IC50 [3] is on record?
**A.** 13 µM

**Q.** Which IC50 [2] does the source give for `OC(COc1cccc2ccccc12)CN1CCCN(c2cc(N3CCCC3)nc(N3CCCC3)n2)CC1` (stereo not drawn) [Example 23] here?
**A.** 13 µM

**Q.** And the inhibition in vivo at 25 mg/kg [4]?
**A.** 52%

**Q.** And the IC50 [3]?
**A.** 9 µM

**Q.** With `Nc1cc(N2CCN(CC(O)COc3ccc4ccccc4c3)CC2)nc(N)n1` (stereo not drawn) [Example 24] as the molecule, how does the inhibition in vivo at 25 mg/kg [4] read?
**A.** 20%

**Q.** Which inhibition in vivo at 25 mg/kg [4] does the source give for `Nc1cc(N2CCCN(CC(O)COc3ccc4ccccc4c3)CC2)nc(N)n1` (stereo not drawn) [Example 25] here?
**A.** 35%

**Q.** Which results are given for `OC(COc1ccc2ccccc2c1)CN1CCN(c2cc(N3CCCC3)nc(N3CCCC3)n2)CC1` (stereo not drawn) [Example 26]?
**A.** IC50 [2]: 59 µM; inhibition in vivo at 25 mg/kg [4]: 45%; IC50 [3]: 19 µM

**Q.** With `O=C1CCCc2cc(OCC(O)CN3CCCN(c4cc(N5CCCC5)nc(N5CCCC5)n4)CC3)ccc21` (stereo not drawn) [Example 30] as the molecule, how does the IC50 [2] read?
**A.** 16 µM

**Q.** And the inhibition in vivo at 25 mg/kg [4]?
**A.** 42%

**Q.** And the IC50 [3]?
**A.** 12 µM

**Q.** For `Nc1cc(N2CCN(C(=O)COc3cccc4ccccc34)CC2)nc(N)n1` [Example 31, 1-[2-(1-Naphthyloxy)acetyl]-4-(2,6-diamino-4-pyrimidinyl)piperazine], which inhibition in vivo at 25 mg/kg [4] is on record?
**A.** 79%

**Q.** For `O=C(COc1cccc2ccccc12)N1CCN(c2cc(N3CCCC3)nc(N3CCCC3)n2)CC1` [Example 33, 1-[2-(1-Naphthyloxy)acetyl]-4-[2,6-di(1-pyrrolidinyl)-4-pyrimidinyl]piperazine], which inhibition in vivo at 25 mg/kg [4] is on record?
**A.** 53%

**Q.** What about the IC50 [3] of the same molecule?
**A.** 20 µM

**Q.** What does the source list for `O=C(COc1cccc2ccccc12)N1CCCN(c2cc(N3CCCC3)nc(N3CCCC3)n2)CC1` [Example 36]?
**A.** inhibition in vivo at 25 mg/kg [4]: 24%; IC50 [3]: 30 µM

**Q.** Which IC50 [1] does the source give for `Nc1nc(N)c2nc(-c3ccc(OCC(O)CN4CCN(C56CC7CC(CC(C7)C5)C6)CC4)cc3)c(N)nc2n1` (stereo not drawn) [Example 37, 6-[4-[3-[4-(1-Adamantyl)-1-piperazinyl]-2-hydroxypropoxy]phenyl]-2,4,7-triaminopteridine] here?
**A.** 17 µM

**Q.** What about the inhibition in vivo at 25 mg/kg [4] of the same molecule?
**A.** 35%

**Q.** With `Nc1nc(N)c2nc(-c3ccc(OCC(O)CN4CCN(C(c5ccccc5)(c5ccccc5)c5ccccc5Cl)CC4)cc3)c(N)nc2n1` (stereo not drawn) [Example 39] as the molecule, how does the inhibition in vivo at 25 mg/kg [4] read?
**A.** 34%

**Q.** With `Nc1nc(N)c2nc(-c3ccc(OCC(O)CN4CCCNCC4)cc3)c(N)nc2n1` (stereo not drawn) [Example 51] as the molecule, how does the IC50 [1] read?
**A.** 28 µM

**Q.** Which IC50 [1] does the source give for `Nc1nc(N)c2nc(-c3ccc(NCC(O)CN4CCNCC4)cc3)c(N)nc2n1` (stereo not drawn) [Example 52] here?
**A.** 12 µM

**Q.** What about the inhibition in vivo at 25 mg/kg [4] of the same molecule?
**A.** 34%

**Q.** Which IC50 [1] does the source give for `CN(CC(O)CN1CCNCC1)c1ccc(-c2nc3c(N)nc(N)nc3nc2N)cc1` (stereo not drawn) [Example 53] here?
**A.** 0.9 µM

**Q.** What about the inhibition in vivo at 25 mg/kg [4] of the same molecule?
**A.** 56%

**Q.** With `Nc1nc(N)c2nc(-c3ccc(SCC(O)CN4CCNCC4)cc3)c(N)nc2n1` (stereo not drawn) [Example 54] as the molecule, how does the IC50 [1] read?
**A.** 17 µM

**Q.** What about the inhibition in vivo at 25 mg/kg [4] of the same molecule?
**A.** 56%

**Q.** With `Nc1nc(N)c2nc(-c3ccc(NC(=O)CN4CCNCC4)cc3)c(N)nc2n1` [Example 55] as the molecule, how does the inhibition in vivo at 25 mg/kg [4] read?
**A.** 47%

**Q.** Which inhibition in vivo at 25 mg/kg [4] does the source give for `Nc1nc(N)c2nc(-c3ccc(NCCCN4CCNCC4)cc3)c(N)nc2n1` [Example 56, 6-[4-[3-(1-Piperazinyl)propylamino]phenyl]-2,4,7-triamino-pteridine] here?
**A.** 44%

**Q.** For `Nc1nc2nc(N3CCN(C45CC6CC(CC(C6)C4)C5)CC3)nc(N)c2nc1-c1ccccc1` [Example 57, 1-(1-Adamantyl)-4-(4,7-diamino-6-phenyl-2-pteridinyl)piperazine], which IC50 [1] is on record?
**A.** 49 µM

**Q.** For `Nc1nc2nc(N3CCNCC3)nc(N)c2nc1-c1ccccc1` [Example 58, 1-(4,7-Diamino-6-phenyl-2-pteridinyl)piperazine], which IC50 [1] is on record?
**A.** 38 µM

**Q.** For `Nc1nc(N2CCNCC2)c2nc(-c3ccccc3)c(N)nc2n1` [Example 59, 1-(2,7-Diamino-6-phenyl-4-pteridinyl)piperazine], which inhibition in vivo at 25 mg/kg [4] is on record?
**A.** 30%

**Q.** What does the source list for `C[C@@H]1C[C@H]2[C@@H]3CCC4=CC(=O)C=C[C@]4(C)C3=CC[C@]2(C)[C@H]1C(=O)CN1CCN(c2cc(N3CCCC3)nc(N3CCCC3)n2)CC1` [Example U74006F, 21-[4-[2,6-di(1-pyrrolidinyl)-4-pyrimidinyl]-1-piperazinyl]-16α-methyl-pregna-1,4,9(11)-triene-3,20-dione, reference compound]?
**A.** IC50 [1]: > 100 µM; Improvement (in the neurological state) (acute brain injury; 30 mg/kg): 77%; IC50 [2]: > 100 µM; inhibition in vivo at 25 mg/kg [4]: 59%; LD50 (acute toxicity in rats): > 1000 mg/kg; IC50 [3]: 39 µM

**Q.** For `Cc1c(C)c2c(c(C)c1O)CCC(C)(CN1CCN(c3cc(N4CCCC4)nc(N4CCCC4)n3)CC1)O2` (stereo not drawn) [Example U78517F, 2-[[4-[2,6-di(1-pyrrolidinyl)-4-pyrimidinyl]-1-piperazinyl]methyl]-6-hydroxy-2,5,7,8-tetramethyl-3,4-dihydro-2H-1-benzopyrane, reference compound], which IC50 [1] is on record?
**A.** > 50 µM

**Q.** What about the “Improvement (in the neurological state)” value (acute brain injury; 20 mg/kg) of the same molecule?
**A.** 31%

**Q.** What about the IC50 [2] of the same molecule?
**A.** 0.7 µM

**Q.** And the inhibition in vivo at 25 mg/kg [4]?
**A.** 20%

**Q.** And the IC50 [3]?
**A.** 0.3 µM

**Q.** With `Cc1c(C)c2c(c(C)c1O)CCC(C)(CCCC(C)CCCC(C)CCCC(C)C)O2` (stereo not drawn) [α-tocopherol, reference compound] as the molecule, how does the IC50 [1] read?
**A.** 2 µM

**Q.** What about the “Improvement (in the neurological state)” value (acute brain injury; 30 mg/kg) of the same molecule?
**A.** 97%

**Q.** And the IC50 [2]?
**A.** > 100 µM

**Q.** What about the IC50 [3] of the same molecule?
**A.** 7 µM
